Source: patent publication US12673935B2, “Pyrimidine derivative, and preparation method therefor and use thereof” (CGENETECH (SUZHOU, CHINA) CO., LTD., priority 2020, dated 2026)

Experiments:
[1] = biological target: CDK2/human cyclin E (Homo sapiens, UniProt P24941); assay: Determination of activity of CDK2 kinase (Caliper mobility shift); format: biochemical; conditions: 10 μM ATP, 0.1 nM enzyme, 25° C. 6 hours; read-out: CDK2/CycE IC50
Experimental: The activity of CDK2 kinase in vitro was tested by the following method: • Final buffer: • 100 mM 4-hydroxyethyl piperazine ethanesulfonic acid, pH 7.5; • 0.1% bovine serum albumin; • 0.01% Triton X-100; • 1 mM dithiothreitol; • 5 mM magnesium chloride; • 10 μM sodium orthovanadate; • 10 μM sodium P-glycerophosphate; • 10 μM ATP; • 1% DMSO (from the compound to be tested); • Substrate Peptide: 1 μM FAM-[…]-OH, wherein FAM is 5-carboxyfluorescein; • 0.1 nM CDK2/human cyclin E.
(§1) 5 μL of buffer, 0.1 μL of compound to be tested (DMSO, 100 times the highest concentration) and 5 μL of substrate peptide buffer were added to a 384-well plate. The reaction was terminated with EDTA after culturing at 25° C. for 6 hours. Electrophoresis reading was started (Caliper LabChip® 3000 Drug Discovery System, blue laser (480 nm) for excitation, green CCD (520 nm) for detection of CCD2).

[2] = biological target: CDK4/human cyclin D1 (Homo sapiens, UniProt P11802); assay: Determination of activity of CDK4 kinase (Caliper mobility shift); format: biochemical; conditions: 25 μM ATP, 5 nM enzyme, 25° C. 6 hours; read-out: CDK4/CycD1 IC50
Experimental: The activity of CDK4 kinase in vitro was tested by the following method: • Final buffer: • 100 mM 4-hydroxyethyl piperazine ethanesulfonic acid, pH 7.5; • 0.1% bovine serum albumin; • 0.01% Triton X-100; • 1 mM dithiothreitol; • 5 mM magnesium chloride; • 10 μM sodium orthovanadate; • 10 μM sodium P-glycerophosphate; • 25 μM ATP; • 1% DMSO (from the compound to be tested); • Substrate Peptide: 1 μM FAM-[…]-NH2 segment, wherein FAM is 5-carboxyfluorescein; • 5 nM CDK4/human cyclin D1.
as §1

[3] = biological target: T1, CDK6/human cyclin D3 (Homo sapiens, UniProt Q00534); assay: Determination of activity of CDK6 kinase (Caliper mobility shift); format: biochemical; conditions: 300 μM ATP, 2 nM enzyme, 25° C. 3 hours; read-out: CDK6/CycD3 IC50
T1 construct: purchased Carna 04-107
Experimental: The activity of CDK6 kinase in vitro was tested by the following method: • 2 nM CDK6/human cyclin D3 (Carna, No. 04-107) • Final buffer: • 100 mM 4-hydroxyethyl piperazine ethanesulfonic acid, pH 7.5; • 0.1% bovine serum albumin; • 0.01% Triton X-100; • 1 mM dithiothreitol; • 5 mM magnesium chloride; • 10 μM sodium orthovanadate; • 10 μM sodium P-glycerophosphate; • 300 μM ATP; • 1% DMSO (from the compound to be tested); • Substrate peptide: Dyrktide;
as §1, with “3” for “6”

[4] = tested on: MDA-MB-468 cells; assay: Determination of activity of MDA-MB-468 cells (CellTiter-Glo); format: cell-based; conditions: Homo sapiens, MDA-MB-468, 120 h, 5 days culture
Experimental: • MDA-MB-468 (ATCC No. HTB-132); • RPMI 1640 (Invitrogen No. 22400089); • FBS (Hyclone No. SV30087.03); • Pen Strep (Hyclone No. SV30010); • CellTiter-Glo (Promega No. G7573); • Medium: 89% RPMI 1640, 10% FBS and 1% Pen Strep;
300 MDA-MB-468 cells and 50 μL of medium were inoculated in a plate with 100 μL of PBS buffer added, which was then cultured for 24 hours at 37° C./5% CO2, then 250 nL of samples, which were taken from the compounds to be tested at ten test points and diluted with four times DMSO, were added to the plate wells and cultured for 5 days at 37° C./5% CO2, then 25 μL of CellTiter-Glo was added to each plate well, followed by centrifugation by rotating (1000 rpm) for 15 seconds, and vibration mixing (400 rpm) for 10 minutes, the microplate reader Envision was started to read.

Chain of CDK4/human cyclin D1 (P11802 whole entry): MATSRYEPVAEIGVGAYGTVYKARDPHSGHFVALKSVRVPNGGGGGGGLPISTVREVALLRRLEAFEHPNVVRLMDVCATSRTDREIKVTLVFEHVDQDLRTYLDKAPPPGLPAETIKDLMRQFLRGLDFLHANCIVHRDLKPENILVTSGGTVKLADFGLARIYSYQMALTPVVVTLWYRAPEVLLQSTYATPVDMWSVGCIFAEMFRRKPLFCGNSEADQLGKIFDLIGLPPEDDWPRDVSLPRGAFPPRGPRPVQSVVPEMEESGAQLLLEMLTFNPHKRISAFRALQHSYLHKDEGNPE
Chain of CDK4/human cyclin D1 (P24385 whole entry partner): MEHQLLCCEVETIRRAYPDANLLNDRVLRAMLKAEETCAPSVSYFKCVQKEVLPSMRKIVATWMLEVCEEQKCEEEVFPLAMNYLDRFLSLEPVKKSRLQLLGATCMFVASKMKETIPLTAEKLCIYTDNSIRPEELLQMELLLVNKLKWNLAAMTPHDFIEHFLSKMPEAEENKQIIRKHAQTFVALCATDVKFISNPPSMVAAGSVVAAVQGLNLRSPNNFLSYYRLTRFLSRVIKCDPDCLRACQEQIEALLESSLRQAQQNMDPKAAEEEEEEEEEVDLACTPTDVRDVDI
T1 sequence (Q00534 whole entry): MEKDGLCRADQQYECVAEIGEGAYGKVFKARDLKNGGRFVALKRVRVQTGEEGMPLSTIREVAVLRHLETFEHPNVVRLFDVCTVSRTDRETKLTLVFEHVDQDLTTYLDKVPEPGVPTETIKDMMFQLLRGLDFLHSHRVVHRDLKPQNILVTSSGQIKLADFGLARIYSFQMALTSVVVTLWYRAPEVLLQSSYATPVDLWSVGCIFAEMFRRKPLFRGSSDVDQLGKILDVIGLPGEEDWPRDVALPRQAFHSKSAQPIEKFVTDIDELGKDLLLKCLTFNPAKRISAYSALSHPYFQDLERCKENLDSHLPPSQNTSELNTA
T1 sequence (P30281 whole entry partner): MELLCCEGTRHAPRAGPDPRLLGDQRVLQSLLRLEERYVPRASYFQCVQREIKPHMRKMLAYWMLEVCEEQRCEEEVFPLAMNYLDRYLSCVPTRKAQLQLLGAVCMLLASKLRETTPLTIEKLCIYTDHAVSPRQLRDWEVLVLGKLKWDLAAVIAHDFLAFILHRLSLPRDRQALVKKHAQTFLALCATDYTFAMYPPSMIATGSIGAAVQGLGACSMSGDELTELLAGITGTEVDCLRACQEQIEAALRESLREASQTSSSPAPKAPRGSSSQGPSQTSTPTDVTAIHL

Q: `Cc1nc2c(F)cc(-c3nc(Nc4ccc(N5CCC(N(C)CCO)CC5)cn4)ncc3F)cc2n1C(C)C` [Compound 1963] was tested. Which IC50 [1] did it give?
A: 101 nM

Q: What about the IC50 [2] of the same molecule?
A: 1.78 nM

Q: And the IC50 [3]?
A: 1 nM

Q: And the IC50 [4]?
A: 459 nM

Q: How did the IC50 [1] turn out when `Cc1nc2c(F)cc(-c3nc(Nc4ccc(CN5CCC(N(C)CCO)CC5)cn4)ncc3F)cc2n1C(C)C` [Compound 1964] was run?
A: 313 nM

Q: What about the IC50 [2] of the same molecule?
A: 1.4 nM

Q: What about the IC50 [3] of the same molecule?
A: 8.6 nM

Q: What about the IC50 [4] of the same molecule?
A: 126 nM

Q: Which results are given for `CNC1CCN(c2ccc(Nc3ncc(F)c(-c4cc(F)c5nc(C)n(C(C)C)c5c4)n3)nc2)CC1` [Compound 1967]?
A: IC50 [1]: 122 nM; IC50 [2]: 0.17 nM; IC50 [3]: 1.23 nM; IC50 [4]: 682 nM

Q: For `CC(C)n1c(CF)nc2c(F)cc(-c3nc(Nc4ccc(CN5CCC(N(C)C)CC5)cn4)ncc3F)cc21` [Compound 1975], which IC50 [1] is on record?
A: 8.2 nM

Q: And the IC50 [2]?
A: 1.55 nM

Q: And the IC50 [3]?
A: 6.7 nM

Q: What about the IC50 [4] of the same molecule?
A: 457 nM

Q: Which IC50 [1] does the source give for `CCN1CCN(Cc2ccc(Nc3ncc(F)c(-c4cc(F)c5nc(CF)n(C(C)C)c5c4)n3)nc2)CC1` [Compound 1978] here?
A: 459 nM

Q: And the IC50 [2]?
A: 2.6 nM

Q: And the IC50 [3]?
A: 9.8 nM

Q: What about the IC50 [4] of the same molecule?
A: 1150 nM

Q: Which IC50 [1] does the source give for `Cc1nc2c(F)cc(-c3nc(Nc4ccc(CN5CCN(CCO)CC5)cn4)ncc3F)cc2n1C(C)C` [Compound 1979] here?
A: 163 nM

Q: What about the IC50 [2] of the same molecule?
A: 0.83 nM

Q: What about the IC50 [3] of the same molecule?
A: 4.1 nM

Q: What about the IC50 [4] of the same molecule?
A: 1390 nM

Q: What does the source list for `CC(C)n1c(CF)nc2c(F)cc(-c3nc(Nc4ccc(N5CCC(N(C)C)CC5)cn4)ncc3F)cc21` [Compound 1984]?
A: IC50 [1]: 231 nM; IC50 [2]: 1.25 nM; IC50 [3]: 3.9 nM; IC50 [4]: 344 nM

Q: For `CCN1CCN(c2ccc(Nc3ncc(F)c(-c4cc(F)c5nc(CF)n(C(C)C)c5c4)n3)nc2)CC1` [Compound 1985], which IC50 [1] is on record?
A: 128 nM

Q: And the IC50 [2]?
A: 0.98 nM

Q: What about the IC50 [3] of the same molecule?
A: 3 nM

Q: And the IC50 [4]?
A: 454 nM

Q: How did the IC50 [1] turn out when `Cc1nc2c(F)cc(-c3nc(Nc4ccc(N5CCN(CCO)CC5)cn4)ncc3F)cc2n1C(C)C` [Compound 1986] was run?
A: 95 nM

Q: And the IC50 [2]?
A: 1.2 nM

Q: What about the IC50 [3] of the same molecule?
A: 1.8 nM

Q: What about the IC50 [4] of the same molecule?
A: 573 nM

Q: What does the source list for `Cc1nc2c(F)cc(-c3nc(Nc4ccc(N5CCN(CC(C)O)CC5)cn4)ncc3F)cc2n1C(C)C` (centres unmarked) [Compound 1987]?
A: IC50 [1]: 355 nM; IC50 [2]: 1.2 nM; IC50 [3]: 5.9 nM; IC50 [4]: 345 nM

Q: For `COCCN1CCN(c2ccc(Nc3ncc(F)c(-c4cc(F)c5nc(C)n(C(C)C)c5c4)n3)nc2)CC1` [Compound 1988], which IC50 [1] is on record?
A: 92 nM

Q: What about the IC50 [2] of the same molecule?
A: 0.75 nM

Q: And the IC50 [3]?
A: 1.1 nM

Q: And the IC50 [4]?
A: 529 nM

Q: Which IC50 [1] does the source give for `CC(C)n1c(CF)nc2c(F)cc(-c3nc(Nc4ccc(N5CCC(N(C)CCO)CC5)cn4)ncc3F)cc21` [Compound 1990] here?
A: 5.3 nM

Q: And the IC50 [2]?
A: 1.54 nM

Q: What about the IC50 [3] of the same molecule?
A: 4.8 nM

Q: And the IC50 [4]?
A: 276 nM

Q: `CCN1CCN(Cc2ccc(Nc3ncc(F)c(-c4cc(F)c5nc(CO)n(C(C)C)c5c4)n3)nc2)CC1` [Compound 1994] was tested. Which IC50 [1] did it give?
A: 82 nM

Q: What about the IC50 [2] of the same molecule?
A: 0.67 nM

Q: And the IC50 [3]?
A: 8.7 nM

Q: What about the IC50 [4] of the same molecule?
A: 485 nM

Q: For `CC(C)n1c(CF)nc2c(F)cc(-c3nc(Nc4ccc(CN5CCC(N(C)CCO)CC5)cn4)ncc3F)cc21` [Compound 1995], which IC50 [1] is on record?
A: 6.2 nM

Q: What about the IC50 [2] of the same molecule?
A: 1.75 nM

Q: What about the IC50 [3] of the same molecule?
A: 10.1 nM

Q: What about the IC50 [4] of the same molecule?
A: 186 nM
